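How tested: cells in 96-well plates exposed to compound for 48 hours at five concentrations. Definition used: TGI = concentration required for complete inhibition of growth.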
What was measured:
Assay in all cases: inhibition of tumour cell growth, NCI panel, 48 h
786-0 renal = tested on: 786-0 renal
A498 renal = tested on: A498 renal
A549 NSCLC = tested on: A549 NSCLC
ACHN renal = tested on: ACHN renal
CAKI-1 renal = tested on: CAKI-1 renal
CCRF-CEM leukemia = tested on: CCRF-CEM leukemia
COLO 205 colon = tested on: COLO 205 colon
DLD-1 colon = tested on: DLD-1 colon
DMS 114 small cell lung = tested on: DMS 114 small cell lung
EKVX NSCLC = tested on: EKVX NSCLC
HCC-2998 colon = tested on: HCC-2998 colon
HCT-116 colon = tested on: HCT-116 colon
HCT-15 colon = tested on: HCT-15 colon
HL-60(TB) leukemia = tested on: HL-60(TB) leukemia
HOP-18 NSCLC = tested on: HOP-18 NSCLC
HOP-62 NSCLC = tested on: HOP-62 NSCLC
HOP-92 NSCLC = tested on: HOP-92 NSCLC
HT29 colon = tested on: HT29 colon
IGROV1 ovarian = tested on: IGROV1 ovarian
K-562 leukemia = tested on: K-562 leukemia
KM12 colon = tested on: KM12 colon
KM20L2 colon = tested on: KM20L2 colon
LOX IMVI melanoma = tested on: LOX IMVI melanoma
LXFL 529 NSCLC = tested on: LXFL 529 NSCLC
M14 melanoma = tested on: M14 melanoma
M19-MEL melanoma = tested on: M19-MEL melanoma
MALME-3M melanoma = tested on: MALME-3M melanoma
MOLT-4 leukemia = tested on: MOLT-4 leukemia
NCI-H226 lung = tested on: NCI-H226 lung
NCI-H23 lung = tested on: NCI-H23 lung
NCI-H460 lung = tested on: NCI-H460 lung
NCI-H522 lung = tested on: NCI-H522 lung
OVCAR-3 ovarian = tested on: OVCAR-3 ovarian
OVCAR-4 ovarian = tested on: OVCAR-4 ovarian
OVCAR-5 ovarian = tested on: OVCAR-5 ovarian
OVCAR-8 ovarian = tested on: OVCAR-8 ovarian
RPMI-8226 leukemia = tested on: RPMI-8226 leukemia
RXF 393 renal = tested on: RXF 393 renal
SF-268 CNS = tested on: SF-268 CNS
SF-295 CNS = tested on: SF-295 CNS
SF-539 CNS = tested on: SF-539 CNS
SK-MEL-2 melanoma = tested on: SK-MEL-2 melanoma
SK-MEL-28 melanoma = tested on: SK-MEL-28 melanoma
SK-MEL-5 melanoma = tested on: SK-MEL-5 melanoma
SK-OV-3 ovarian = tested on: SK-OV-3 ovarian
SN12C renal = tested on: SN12C renal
SNB-19 CNS = tested on: SNB-19 CNS
SNB-75 CNS = tested on: SNB-75 CNS
SNB-78 CNS = tested on: SNB-78 CNS
SR leukemia = tested on: SR leukemia
SW-620 colon = tested on: SW-620 colon
TK-10 renal = tested on: TK-10 renal
U251 CNS = tested on: U251 CNS
UACC-257 melanoma = tested on: UACC-257 melanoma
UACC-62 melanoma = tested on: UACC-62 melanoma
UO-31 renal = tested on: UO-31 renal
XF 498 CNS = tested on: XF 498 CNS
DMS 273 small cell lung = tested on: DMS 273 small cell lung

Measured: TGI

OCCCNc1ccnc2cc(Cl)ccc12
not listed: DMS 273 small cell lung
> 100 µM: all other assays above

CCOP12(OCC)NC(=O)OC1(C(F)(F)F)c1ccccc1O2 (stereo unspecified)
not listed: A498 renal | CAKI-1 renal | COLO 205 colon | EKVX NSCLC | HCC-2998 colon | HOP-62 NSCLC | HOP-92 NSCLC | KM20L2 colon | OVCAR-5 ovarian | RPMI-8226 leukemia | SR leukemia | SW-620 colon | U251 CNS | XF 498 CNS
> 100 µM: all other assays above
